The source of these data is patent US20240368163A1, “COMPOUNDS AND METHODS FOR MODULATING SPLICING” (REMIX THERAPEUTICS INC., priority 2021, published 2024).

What all share (format): cell-based, human
Experiment [1] relates to MYB. Description: Splicing RT-qPCR assay, MYB mRNA canonical junction (CJ) and alternative junction (AJ). Particulars: Homo sapiens; for AC50: increase in AJ mRNA. Put shortly: (§1)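 A673 or K562 cells treated 24 h at 37 °C with 11-point 3-fold dilutions, top 10 uM, DMSO ≤0.25%. Lysates read by RT-qPCR for CJ and AJ isoforms, normalized to GAPDH, GUSB or PPIA; ΔΔCt vs DMSO converted to RQ, then percent response.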
On the technique in general: In qPCR the cycle at which signal appears reflects the starting amount.

In experiment [2] the test system is HTT. The experiment can be described thus: HiBiT protein abundance assay, HTT. Particulars: Homo sapiens, K562, 24 h, Table 13A, modified K562 cells. In short, it runs like this:
(§2)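 Protein abundance measured by Nano-Glo HiBiT lytic luminescence after 24 h compound exposure of modified K562 lines, 10000 cells/well, top final dose 10 μM in 3-fold steps. Four-parameter fit of control-normalised response gives concentration reducing abundance to 50% of untreated.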

In experiment [3] the test system is SMN2. The experiment can be described thus: Splicing RT-qPCR panel, SMN2 canonical junction (CJ) mRNA. To be noted: Homo sapiens, RT-qPCR panel, canonical junction mRNA; compound concentration having 50% response in CJ decrease; read-out: SMN2 IC50 (decrease in CJ mRNA levels). Put shortly:
as §1

Experiment [4] concerns Target C. Description: HiBiT protein abundance assay, Target C. Particulars: Homo sapiens, K562, 24 h, Table 13A, modified K562 cells. Put shortly:
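Target protein levels in engineered HiBiT-tagged cells were read by lytic luminescence after 24 h compound exposure (10000 cells/well, 10 μM top final, 3-fold steps, ≤0.25% DMSO). Unmodified K562 served as baseline; four-parameter regression gave concentration reducing abundance to 50%.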
For orientation: HiBiT is a short tag that completes a luciferase, so light tracks the accessible tagged protein.

The subject of experiment [5] is HTT. The experiment can be described thus: Splicing RT-qPCR assay, HTT mRNA canonical junction (CJ) and alternative junction (AJ). Particulars: Homo sapiens; for AC50: increase in AJ mRNA. Put shortly:
as §1

The test system of experiment [6] is MYB. Description: HiBiT protein abundance assay, MYB. Particulars: Homo sapiens, K562, 24 h, Table 13A, modified K562 cells. In short, it runs like this:
as §2

For experiment [7], the system named is Target C. Description: Splicing RT-qPCR panel, Target C canonical junction (CJ) mRNA. To be noted: Homo sapiens, RT-qPCR panel, canonical junction mRNA; compound concentration having 50% response in CJ decrease; read-out: Target C IC50 (decrease in CJ mRNA levels). Put shortly:
as §1

Where [8] appears, read: 24 h, decrease in CJ mRNA, A673 or K562 cells, 24 hours treatment, RT-qPCR, read-out: MYB CJ IC50.
Setting [9] is: 24 h, A673 or K562 cells, 24 hours treatment, RT-qPCR.
[10] abbreviates: RT-qPCR panel, canonical junction mRNA, compound concentration having 50% response in CJ decrease, read-out: MYB IC50 (decrease in CJ mRNA levels).
Setting [11] is: 24 h, decrease in CJ mRNA, A673 or K562 cells, 24 hours treatment, RT-qPCR, read-out: HTT CJ IC50.
Where [12] appears, read: RT-qPCR panel, canonical junction mRNA, compound concentration having 50% response in CJ decrease, read-out: HTT IC50 (decrease in CJ mRNA levels).

Usually IC50 stands for the point on the concentration scale where inhibition reaches its midpoint. A word on the AC50: it is the concentration at which the activity in the assay is half-maximal.

For `c1n[nH]cc1-c1ccc(-c2ccc(N3CCC4(CCCNC4)C3)nn2)c2[nH]ncc12` (stereo not shown) [Compound 252], the IC50 in experiment [1] (setting [8]) is above 10 µM; in experiment [1] (setting [10]) it was above 10 µM; in experiment [2], above 10 µM; in experiment [3], 1 to 10 µM; in experiment [4], above 10 µM; in experiment [5] (setting [11]), above 10 µM. Moreover, the half-inhibitory concentration (IC50) was above 10 µM in experiment [5] (setting [12]), 1 to 10 µM in experiment [6] and above 10 µM in experiment [7]. Besides, the half-maximal activity concentration (AC50) in experiment [1] (setting [9]) and in experiment [5] (setting [9]) was above 10 µM each time.

`c1n[nH]cc1-c1ccc(-c2ccc(N3CCCC4(CCNC4)C3)nn2)c2[nH]ncc12` (stereo not shown) [Compound 253]: the concentration for half-maximal inhibition (IC50) in experiment [1] (setting [8]), in experiment [1] (setting [10]), in experiment [2], in experiment [3], in experiment [4] and in experiment [5] (setting [11]) was above 10 µM throughout. The half-maximal inhibitory concentration (IC50) in experiment [5] (setting [12]), in experiment [6] and in experiment [7] was above 10 µM throughout. For the same compound, the AC50 in experiment [1] (setting [9]) and in experiment [5] (setting [9]) was above 10 µM throughout.

Consider `c1n[nH]cc1-c1ccc(-c2ccc(N3C[C@H]4CNC[C@H]4C3)nn2)c2[nH]ncc12` [Compound 254], for which the concentration for half-maximal inhibition (IC50) in experiment [1] (setting [8]) is above 10 µM; in experiment [1] (setting [10]) it was above 10 µM; in experiment [2], above 10 µM; in experiment [3] it was 0.1 to 1 µM; in experiment [4] it was above 10 µM; in experiment [5] (setting [11]), above 10 µM. The concentration for half-maximal inhibition (IC50) in experiment [5] (setting [12]), in experiment [6] and in experiment [7] was above 10 µM throughout. In addition, the results for the concentration at half-maximal activity (AC50) in experiment [1] (setting [9]) and in experiment [5] (setting [9]) were 1 to 10 µM and above 10 µM, respectively.

`CN1C[C@@H]2CN(c3ccc(-c4ccc(-c5cn[nH]c5)c5cn[nH]c45)nn3)C[C@@H]2C1` [Compound 255]: the IC50 was above 10 µM in experiment [1] (setting [8]); above 10 µM in experiment [1] (setting [10]); 1 to 10 µM in experiment [2]; 0.1 to 1 µM in experiment [3]; above 10 µM in experiment [4]; above 10 µM in experiment [5] (setting [11]). Moreover, the IC50 is above 10 µM in experiment [5] (setting [12]), 1 to 10 µM in experiment [6] and above 10 µM in experiment [7]. Further, the results for the half-maximal activity concentration (AC50) in experiment [1] (setting [9]) and in experiment [5] (setting [9]) were 1 to 10 µM and above 10 µM, respectively.

As for `c1n[nH]cc1-c1ccc(-c2ccc(NC3CCNCC3)nn2)c2[nH]ncc12` [Compound 263], the IC50 in experiment [1] (setting [8]), in experiment [1] (setting [10]), in experiment [2], in experiment [3], in experiment [4] and in experiment [5] (setting [11]) was above 10 µM in each case. In addition, the 50% inhibitory concentration (IC50) in experiment [5] (setting [12]), in experiment [6] and in experiment [7] was above 10 µM each time. Also, the AC50 in experiment [1] (setting [9]) and in experiment [5] (setting [9]) was above 10 µM in each case.

`CN(c1ccc(-c2ccc(-n3cccn3)c3cn[nH]c23)nn1)C1CCNCC1` [Compound 264]: the half-inhibitory concentration (IC50) in experiment [1] (setting [8]) is above 10 µM; in experiment [1] (setting [10]), above 10 µM; in experiment [2] it was 1 to 10 µM; in experiment [3], 1 to 10 µM; in experiment [4], 1 to 10 µM; in experiment [5] (setting [11]), above 10 µM. In addition, the 50% inhibitory concentration (IC50) in experiment [5] (setting [12]) was above 10 µM; in experiment [6] it was 1 to 10 µM; in experiment [7], above 10 µM. The concentration at half-maximal activity (AC50) in experiment [1] (setting [9]) and in experiment [5] (setting [9]) was above 10 µM throughout.

Regarding `c1nc2c(-c3cn[nH]c3)ccc(-c3ccc(N4CCC5(CCN5)C4)nn3)c2s1` (stereo not shown) [Compound 265], the IC50 in experiment [1] (setting [8]) is 1 to 10 µM; in experiment [1] (setting [10]), 1 to 10 µM; in experiment [2], above 10 µM; in experiment [3] it was 0.1 to 1 µM; in experiment [4] it was above 10 µM; in experiment [5] (setting [11]), above 10 µM. Besides, the 50% inhibitory concentration (IC50) in experiment [5] (setting [12]), in experiment [6] and in experiment [7] was above 10 µM throughout. Also, the half-maximal activity concentration (AC50) in experiment [1] (setting [9]) and in experiment [5] (setting [9]) was above 10 µM in each case.

As to `c1nc2c(-c3cn[nH]c3)ccc(-c3ccc(N4CCC45CCNCC5)nn3)c2s1` [Compound 266], the 50% inhibitory concentration (IC50) in experiment [1] (setting [8]) was 1 to 10 µM; in experiment [1] (setting [10]), 1 to 10 µM; in experiment [2] it was 1 to 10 µM; in experiment [3], above 10 µM; in experiment [4], above 10 µM; in experiment [5] (setting [11]), 1 to 10 µM. Also, the 50% inhibitory concentration (IC50) was 1 to 10 µM in experiment [5] (setting [12]), 1 to 10 µM in experiment [6] and above 10 µM in experiment [7]. Moreover, the AC50 in experiment [1] (setting [9]) and in experiment [5] (setting [9]) was above 10 µM throughout.

As to `[2H]C([2H])([2H])N(c1ccc(-c2ccc(-c3cn[nH]c3)c3cn[nH]c23)nn1)C1CCNCC1` [Compound 267], the concentration for half-maximal inhibition (IC50) in experiment [1] (setting [8]) is above 10 µM; in experiment [1] (setting [10]), above 10 µM; in experiment [2], 1 to 10 µM; in experiment [3], 1 to 10 µM; in experiment [4], 1 to 10 µM; in experiment [5] (setting [11]) it was above 10 µM. Moreover, the figures for the IC50 in experiment [5] (setting [12]), in experiment [6] and in experiment [7] were above 10 µM, 1 to 10 µM and above 10 µM, respectively. In addition, the half-maximal activity concentration (AC50) in experiment [1] (setting [9]) and in experiment [5] (setting [9]) was above 10 µM each time.

Regarding `CN(c1ccc(-c2ccc(-c3cn[nH]c3)c3cn[nH]c23)nn1)C1CCNCC1` [Compound 273], the IC50 in experiment [1] (setting [8]) is above 10 µM; in experiment [1] (setting [10]), above 10 µM; in experiment [2], above 10 µM; in experiment [3] it was 1 to 10 µM; in experiment [4], 1 to 10 µM; in experiment [5] (setting [11]) it was above 10 µM. In addition, the IC50 was above 10 µM in experiment [5] (setting [12]), 1 to 10 µM in experiment [6] and above 10 µM in experiment [7]. The AC50 in experiment [1] (setting [9]) and in experiment [5] (setting [9]) was above 10 µM each time.

As for `CCN(c1ccc(-c2ccc(-c3cn[nH]c3)c3cn[nH]c23)nn1)C1CCNCC1` [Compound 274], the IC50 was above 10 µM in experiment [1] (setting [8]); above 10 µM in experiment [1] (setting [10]); 1 to 10 µM in experiment [2]; 1 to 10 µM in experiment [3]; 1 to 10 µM in experiment [4]; above 10 µM in experiment [5] (setting [11]). Also, the concentration for half-maximal inhibition (IC50) in experiment [5] (setting [12]) was above 10 µM; in experiment [6] it was 1 to 10 µM; in experiment [7] it was above 10 µM. Besides, the AC50 in experiment [1] (setting [9]) and in experiment [5] (setting [9]) was above 10 µM each time.

For the compound `CC1(C)CC(Nc2ccc(-c3ccc(-c4cn[nH]c4)c4cn[nH]c34)nn2)CC(C)(C)N1` [Compound 275], the 50% inhibitory concentration (IC50) in experiment [1] (setting [8]) is 0.1 to 1 µM; in experiment [1] (setting [10]), 0.1 to 1 µM; in experiment [2], 0.1 to 1 µM; in experiment [3], 0.1 to 1 µM; in experiment [4] it was below 0.1 µM; in experiment [5] (setting [11]), 0.1 to 1 µM. For the same compound, the IC50 in experiment [5] (setting [12]) fell in the range of 0.1 to 1 µM; in experiment [6], 0.1 to 1 µM; in experiment [7], 1 to 10 µM. Moreover, the AC50 in experiment [1] (setting [9]) and in experiment [5] (setting [9]) was 1 to 10 µM throughout.

For the compound `c1nc2c(-c3cn[nH]c3)ccc(-c3ccc(N4CCC45CCCNC5)nn3)c2s1` (stereo not shown) [Compound 276], the IC50 in experiment [1] (setting [8]), in experiment [1] (setting [10]), in experiment [2], in experiment [3], in experiment [4] and in experiment [5] (setting [11]) was 1 to 10 µM each time. For the same compound, the half-inhibitory concentration (IC50) in experiment [5] (setting [12]), in experiment [6] and in experiment [7] was 1 to 10 µM throughout. Moreover, the AC50 in experiment [1] (setting [9]) and in experiment [5] (setting [9]) was 1 to 10 µM throughout.

`c1nc2c(-c3cn[nH]c3)ccc(-c3ccc(N4CCC45CCNC5)nn3)c2s1` (stereo not shown) [Compound 277]: the IC50 in experiment [1] (setting [8]) was above 10 µM; in experiment [1] (setting [10]), above 10 µM; in experiment [2], above 10 µM; in experiment [3], above 10 µM; in experiment [4] it was 1 to 10 µM; in experiment [5] (setting [11]) it was above 10 µM. Further, the figures for the IC50 in experiment [5] (setting [12]), in experiment [6] and in experiment [7] were above 10 µM, 1 to 10 µM and above 10 µM, respectively. The half-maximal activity concentration (AC50) in experiment [1] (setting [9]) and in experiment [5] (setting [9]) was above 10 µM throughout.
